Data taken from US20230286970A1, “NOVEL OXADIAZOLE-BASED SELECTIVE HDAC6 INHIBITORS” (ITALFARMACO S.P.A., priority 2020, published 2023).

Key:
recombinant human HDAC6 = recombinant human HDAC6 (Homo sapiens (Human), UniProt Q9UBN7); test: Enzymatic screening, HDAC6 inhibition (fluorogenic FdL_G substrate); format: biochemical
Method in brief: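 Enzyme was preincubated with compound (8 doses, triplicate, 1% DMSO) in 25 mM Tris-HCl pH 8, 130 mM NaCl, 0.05% Tween-20, 10% glycerol, with BSA. A FLUOR DE LYS-Green substrate was then added, and fluorescence was read after developer plus 2 μM TSA.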

recombinant human HDAC1 = recombinant human HDAC1 (Homo sapiens (Human), UniProt Q13547); test: Enzymatic screening, HDAC1 inhibition (fluorogenic FdL_G substrate); format: biochemical
recombinant human HDAC1, sequence (Q13547 whole entry): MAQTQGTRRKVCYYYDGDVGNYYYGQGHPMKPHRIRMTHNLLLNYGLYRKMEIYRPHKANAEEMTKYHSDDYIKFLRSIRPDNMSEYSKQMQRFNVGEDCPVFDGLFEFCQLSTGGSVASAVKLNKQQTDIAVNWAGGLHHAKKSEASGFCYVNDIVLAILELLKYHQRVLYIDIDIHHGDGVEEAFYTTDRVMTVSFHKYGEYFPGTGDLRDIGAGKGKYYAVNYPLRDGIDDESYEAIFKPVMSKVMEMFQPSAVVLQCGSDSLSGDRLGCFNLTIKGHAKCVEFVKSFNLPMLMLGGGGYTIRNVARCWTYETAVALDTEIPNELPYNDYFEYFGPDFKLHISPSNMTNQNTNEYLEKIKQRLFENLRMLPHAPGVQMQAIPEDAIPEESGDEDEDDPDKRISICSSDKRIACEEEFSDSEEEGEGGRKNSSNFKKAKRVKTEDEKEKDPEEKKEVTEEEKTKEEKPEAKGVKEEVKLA
Method in brief: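 Recombinant human HDAC1 inhibition was measured fluorometrically using the FLUOR DE LYS-Green (FdL_G) substrate. Compounds at 8 doses (1% DMSO final) in Tris-HCl pH 8 buffer with NaCl, Tween-20 and glycerol were preincubated in triplicate with enzyme and 1 mg/mL BSA, then given substrate. Developer I plus 2 μM TSA was added, and fluorescence read after 25 minutes in the dark.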

recombinant human HDAC6, sequence (Q9UBN7 whole entry): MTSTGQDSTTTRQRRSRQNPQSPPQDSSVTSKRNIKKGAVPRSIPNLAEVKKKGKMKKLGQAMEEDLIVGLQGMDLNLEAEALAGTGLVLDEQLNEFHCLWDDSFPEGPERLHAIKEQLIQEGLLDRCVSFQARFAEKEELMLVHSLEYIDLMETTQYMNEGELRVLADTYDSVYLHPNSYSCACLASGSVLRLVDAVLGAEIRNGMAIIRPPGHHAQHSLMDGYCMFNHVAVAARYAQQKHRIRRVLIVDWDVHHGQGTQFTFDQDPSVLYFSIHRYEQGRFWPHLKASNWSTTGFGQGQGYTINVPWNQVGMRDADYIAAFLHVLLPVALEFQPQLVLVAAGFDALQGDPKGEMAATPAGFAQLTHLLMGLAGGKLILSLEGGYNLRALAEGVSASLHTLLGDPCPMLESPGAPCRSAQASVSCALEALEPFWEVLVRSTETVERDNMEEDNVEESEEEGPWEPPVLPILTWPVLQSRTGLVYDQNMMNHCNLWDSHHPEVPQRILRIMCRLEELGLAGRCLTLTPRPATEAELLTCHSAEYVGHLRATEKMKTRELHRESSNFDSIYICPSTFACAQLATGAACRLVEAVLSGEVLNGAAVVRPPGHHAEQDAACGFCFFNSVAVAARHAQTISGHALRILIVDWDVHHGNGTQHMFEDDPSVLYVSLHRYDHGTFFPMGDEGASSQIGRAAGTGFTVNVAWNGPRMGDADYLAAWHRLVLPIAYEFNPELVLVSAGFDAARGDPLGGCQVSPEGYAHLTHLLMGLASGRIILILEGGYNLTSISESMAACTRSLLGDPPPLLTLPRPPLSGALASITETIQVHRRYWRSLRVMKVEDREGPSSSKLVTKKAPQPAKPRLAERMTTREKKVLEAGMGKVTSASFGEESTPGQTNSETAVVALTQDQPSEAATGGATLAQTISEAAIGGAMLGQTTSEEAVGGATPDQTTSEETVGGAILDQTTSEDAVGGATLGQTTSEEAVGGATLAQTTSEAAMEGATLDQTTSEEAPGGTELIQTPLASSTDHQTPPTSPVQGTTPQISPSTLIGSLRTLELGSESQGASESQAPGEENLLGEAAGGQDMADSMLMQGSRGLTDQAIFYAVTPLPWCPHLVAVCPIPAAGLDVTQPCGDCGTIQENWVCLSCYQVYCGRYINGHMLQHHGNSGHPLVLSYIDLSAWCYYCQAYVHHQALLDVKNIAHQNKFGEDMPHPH

Q: `O=C(Nc1cccc(-c2cn(Cc3cc(F)c(-c4nnc(C(F)F)o4)cc3F)nn2)c1)N1CCOCC1` [compound 363, N-[3-[1-[[4-[5-(difluoromethyl)-1,3,4-oxadiazol-2-yl]-2,5-difluorophenyl]methyl]triazol-4-yl]phenyl]morpholine-4-carboxamide] was tested. Which IC50 (recombinant human HDAC6) did it give?
A: 29 nM

Q: And the IC50 (recombinant human HDAC1)?
A: > 1e+06 nM

Q: What does the source list for `FC(F)c1nnc(-c2ccc(Cn3cc(-c4ccccc4)nn3)cc2)o1` [compd. 234, 2-(difluoromethyl)-5-(4-((4-phenyl-1H-1,2,3-triazol-1-yl)methyl)phenyl)-1,3,4-oxadiazole]?
A: IC50 (recombinant human HDAC6): 202 nM; IC50 (recombinant human HDAC1): > 200000 nM

Q: `Cn1c(Sc2ccc(-c3nnc(C(F)F)o3)cc2)nnc1-c1ccc(N)nc1` [compound 285, 5-(5-((4-(5-(difluoromethyl)-1,3,4-oxadiazol-2-yl)phenyl)thio)-4-methyl-4H-1,2,4-triazol-3-yl)pyridin-2-amine] was tested. Which IC50 (recombinant human HDAC6) did it give?
A: 491 nM

Q: What about the IC50 (recombinant human HDAC1) of the same compound?
A: > 200000 nM

Q: Which IC50 (recombinant human HDAC6) does the source give for `Nc1nccc2cc(-c3nnn(Cc4cc(F)c(-c5nnc(C(F)F)o5)cc4F)n3)ccc12` [compound 396, 6-[2-[[4-[5-(difluoromethyl)-1,3,4-oxadiazol-2-yl]-2,5-difluorophenyl]methyl]tetrazol-5-yl]isoquinolin-1-amine] here?
A: 60 nM

Q: And the IC50 (recombinant human HDAC1)?
A: 1e+06 nM

Q: `O=C(c1cccc(-c2nnn(Cc3ccc(-c4nnc(C(F)F)o4)c(F)c3)n2)c1)N1CCOCC1` [compound 137, (3-(2-(4-(5-(difluoromethyl)-1,3,4-oxadiazol-2-yl)-3-fluorobenzyl)-2H-tetrazol-5-yl)phenyl)(morpholino)methanone] was tested. Which IC50 (recombinant human HDAC6) did it give?
A: 53 nM

Q: And the IC50 (recombinant human HDAC1)?
A: > 200000 nM

Q: Which IC50 (recombinant human HDAC6) does the source give for `CC(C)(C)OC(=O)N1CCn2ncc(-c3cccc(-c4nnn(Cc5ccc(-c6nnc(C(F)F)o6)cc5)n4)c3)c2C1` [compound 240, tert-butyl 3-(3-(2-(4-(5-(difluoromethyl)-1,3,4-oxadiazol-2-yl)benzyl)-2H-tetrazol-5-yl)phenyl)-6,7-dihydropyrazolo[1,5-a]pyrazine-5 (4H)-carboxylate] here?
A: 215 nM

Q: What about the IC50 (recombinant human HDAC1) of the same compound?
A: > 200000 nM

Q: For `Cn1c(N)nc2cc(-c3cn(Cc4ccc(-c5nnc(C(F)F)o5)cc4)cn3)ccc21` [compound 329, 5-[1-[[4-[5-(difluoromethyl)-1,3,4-oxadiazol-2-yl]phenyl]methyl]imidazol-4-yl]-1-methylbenzimidazol-2-amine], which IC50 (recombinant human HDAC6) is on record?
A: 27 nM

Q: And the IC50 (recombinant human HDAC1)?
A: > 1e+06 nM

Q: Which IC50 (recombinant human HDAC6) does the source give for `Nc1ccc(-c2cn([C@H](CN3CCCC3)c3ccc(-c4nnc(C(F)F)o4)cc3)nn2)cn1` [compound 313, 5-[1-[(1S)-1-[4-[5-(difluoromethyl)-1,3,4-oxadiazol-2-yl]phenyl]-2-pyrrolidin-1-ylethyl]triazol-4-yl]pyridin-2-amine] here?
A: 308 nM

Q: What about the IC50 (recombinant human HDAC1) of the same compound?
A: > 1e+06 nM

Q: Which IC50 (recombinant human HDAC6) does the source give for `Nc1ccc(-c2cn(Cc3ccc(-c4nnc(C(F)F)o4)cc3F)nn2)cn1` [compound 48, 5-(1-(4-(5-(difluoromethyl)-1,3,4-oxadiazol-2-yl)-2-fluorobenzyl)-1H-1,2,3-triazol-4-yl)pyridin-2-amine] here?
A: 21 nM

Q: What about the IC50 (recombinant human HDAC1) of the same compound?
A: > 30000 nM

Q: For `FC(F)c1nnc(-c2ccc(Cn3cc(-c4ccc5cn[nH]c5c4)nn3)cc2)o1` [compound 222, 2-(4-((4-(1H-indazol-6-yl)-1H-1,2,3-triazol-1-yl)methyl)phenyl)-5-(difluoromethyl)-1,3,4-oxadiazole], which IC50 (recombinant human HDAC6) is on record?
A: 160 nM

Q: What about the IC50 (recombinant human HDAC1) of the same compound?
A: > 200000 nM

Q: With `O=C(Nc1cc(-c2nnn(Cc3c(F)cc(-c4nnc(C(F)F)o4)cc3F)n2)ccc1O)N1CCOCC1` [compound 95, N-(5-(2-(4-(5-(difluoromethyl)-1,3,4-oxadiazol-2-yl)-2,6-difluorobenzyl)-2H-tetrazol-5-yl)-2-hydroxyphenyl)morpholine-4-carboxamide] as the compound, how does the IC50 (recombinant human HDAC6) read?
A: 37 nM

Q: What about the IC50 (recombinant human HDAC1) of the same compound?
A: > 200000 nM

Q: For `Nc1ccc(-c2noc(Cc3ccc(-c4nnc(C(F)F)o4)cc3)n2)cc1` [compound 375, 4-[5-[[4-[5-(difluoromethyl)-1,3,4-oxadiazol-2-yl]phenyl]methyl]-1,2,4-oxadiazol-3-yl]aniline], which IC50 (recombinant human HDAC6) is on record?
A: 88 nM

Q: And the IC50 (recombinant human HDAC1)?
A: > 1e+06 nM

Q: How did the IC50 (recombinant human HDAC6) turn out when `Nc1ncnc2sc(-c3cn(Cc4c(F)cc(-c5nnc(C(F)F)o5)cc4F)nn3)cc12` [compound 386, 6-(1-(4-(5-(difluoromethyl)-1,3,4-oxadiazol-2-yl)-2,6-difluorobenzyl)-1H-1,2,3-triazol-4-yl)thieno[2,3-d]pyrimidin-4-amine] was run?
A: 40 nM

Q: And the IC50 (recombinant human HDAC1)?
A: 1e+06 nM

Q: Which IC50 (recombinant human HDAC6) does the source give for `CN(Cc1ccncc1)Cc1ccc(-c2cn(Cc3ccc(-c4nnc(C(F)F)o4)cc3)nn2)cc1` [compound 282, N-(4-(1-(4-(5-(difluoromethyl)-1,3,4-oxadiazol-2-yl)benzyl)-1H-1,2,3-triazol-4-yl)benzyl)-N-methyl-1-(pyridin-4-yl)methanamine] here?
A: 282 nM

Q: What about the IC50 (recombinant human HDAC1) of the same compound?
A: > 200000 nM

Q: For `Nc1ncc(-c2cccc(-c3nnn(Cc4ccc(-c5nnc(C(F)F)o5)cc4)n3)c2)s1` [compound 200, 5-(3-(2-(4-(5-(difluoromethyl)-1,3,4-oxadiazol-2-yl)benzyl)-2H-tetrazol-5-yl)phenyl)thiazol-2-amine], which IC50 (recombinant human HDAC6) is on record?
A: 113 nM

Q: What about the IC50 (recombinant human HDAC1) of the same compound?
A: > 200000 nM

Q: Which results are given for `C[C@@H](c1ccc(-c2nnc(C(F)F)o2)cn1)n1cc(-c2ccc(N)nc2)nn1` [Compd. 171, (S)-5-(1-(1-(5-(5-(difluoromethyl)-1,3,4-oxadiazol-2-yl)pyridin-2-yl)ethyl)-1H-1,2,3-triazol-4-yl)pyridin-2-amine]?
A: IC50 (recombinant human HDAC6): 82 nM; IC50 (recombinant human HDAC1): > 200000 nM

Q: For `CC(C)(C)OC(=O)N1CCC2(C1)C(=O)Nc1ccc(-c3cn(Cc4ccc(-c5nnc(C(F)F)o5)cn4)nn3)cc12` (single isomer, unassigned) [compound 265, tert-butyl 5-[1-({5-[5-(difluoromethyl)-1,3,4-oxadiazol-2-yl]pyridin-2-yl}methyl)-1H-1,2,3-triazol-4-yl]-2-oxo-1,2-dihydrospiro[indole-3,3′-pyrrolidine]-1′-carboxylate], which IC50 (recombinant human HDAC6) is on record?
A: 26 nM

Q: And the IC50 (recombinant human HDAC1)?
A: > 200000 nM

Q: Which results are given for `Nc1ccc(-c2cn(C(CO)c3ccc(-c4nnc(C(F)F)o4)cc3)nn2)cn1` (stereo not shown) [Compd. 94, 2-(4-(6-aminopyridin-3-yl)-1H-1,2,3-triazol-1-yl)-2-(4-(5-(difluoromethyl)-1,3,4-oxadiazol-2-yl)phenyl)ethan-1-ol]?
A: IC50 (recombinant human HDAC6): 36 nM; IC50 (recombinant human HDAC1): > 200000 nM

Q: What does the source list for `O=C1Cc2cc(-c3cn(Cc4ccc(-c5nnc(C(F)F)o5)cn4)nn3)ccc2N1` [compound 325, 5-[1-[[5-[5-(difluoromethyl)-1,3,4-oxadiazol-2-yl]pyridin-2-yl]methyl]triazol-4-yl]-1,3-dihydroindol-2-one]?
A: IC50 (recombinant human HDAC6): 26 nM; IC50 (recombinant human HDAC1): > 1e+06 nM

Q: Which results are given for `Nc1ccc(-c2cc(Cc3ccc(-c4nnc(C(F)F)o4)cc3)on2)cn1` [Compd. 202, 5-(5-(4-(5-(difluoromethyl)-1,3,4-oxadiazol-2-yl)benzyl)isoxazol-3-yl)pyridin-2-amine]?
A: IC50 (recombinant human HDAC6): 116 nM; IC50 (recombinant human HDAC1): > 200000 nM

Q: Which IC50 (recombinant human HDAC6) does the source give for `FC(F)c1nnc(-c2ccc(Cn3cnc(-c4ccc(NC5=NCCN5)cc4)c3)c(Cl)c2)o1` [compound 358, N-[4-[1-[[2-chloro-4-[5-(difluoromethyl)-1,3,4-oxadiazol-2-yl]phenyl]methyl]imidazol-4-yl]phenyl]-4,5-dihydro-1H-imidazol-2-amine] here?
A: 52 nM

Q: And the IC50 (recombinant human HDAC1)?
A: 124000 nM

Q: Which IC50 (recombinant human HDAC6) does the source give for `Nc1ccc(-c2noc(Cc3ccc(-c4nnc(C(F)F)o4)cc3F)n2)cc1` [compd. 419, 4-(5-(4-(5-(difluoromethyl)-1,3,4-oxadiazol-2-yl)-2-fluorobenzyl)-1,2,4-oxadiazol-3-yl)aniline] here?
A: 64 nM

Q: And the IC50 (recombinant human HDAC1)?
A: > 1e+06 nM

Q: How did the IC50 (recombinant human HDAC6) turn out when `FC(F)c1nnc(-c2ccc(Cn3nnc(-c4cccs4)n3)cc2)o1` [compd. 261, 2-(difluoromethyl)-5-(4-((5-(thiophen-2-yl)-2H-tetrazol-2-yl)methyl)phenyl)-1,3,4-oxadiazole] was run?
A: 181 nM

Q: What about the IC50 (recombinant human HDAC1) of the same compound?
A: > 200000 nM

Q: Which results are given for `CCNc1ccc2cc(-c3nnn(Cc4cc(F)c(-c5nnc(C(F)F)o5)cc4F)n3)ccc2n1` [compound 409, 6-(2-(4-(5-(difluoromethyl)-1,3,4-oxadiazol-2-yl)-2,5-difluorobenzyl)-2H-tetrazol-5-yl)-N-ethylquinolin-2-amine]?
A: IC50 (recombinant human HDAC6): 420 nM; IC50 (recombinant human HDAC1): 1e+06 nM

Q: How did the IC50 (recombinant human HDAC6) turn out when `CN1CCN(C(=O)Nc2cccc(-c3cn(Cc4ccc(-c5nnc(C(F)F)o5)cc4)nn3)c2)CC1` [compound 146, N-(3-(1-(4-(5-(difluoromethyl)-1,3,4-oxadiazol-2-yl)benzyl)-1H-1,2,3-triazol-4-yl)phenyl)-4-methylpiperazine-1-carboxamide] was run?
A: 62 nM

Q: And the IC50 (recombinant human HDAC1)?
A: > 200000 nM

Q: Which results are given for `O=C(Nc1cccc(-c2cnn(Cc3ccc(-c4nnc(C(F)F)o4)cn3)c2)c1)N1CCOCC1` [compound 119, N-(3-(1-((5-(5-(difluoromethyl)-1,3,4-oxadiazol-2-yl)pyridin-2-yl)methyl)-1H-pyrazol-4-yl)phenyl)morpholine-4-carboxamide]?
A: IC50 (recombinant human HDAC6): 45 nM; IC50 (recombinant human HDAC1): > 200000 nM

Q: What does the source list for `Cn1c(N)nc2cc(-c3cnn(Cc4ccc(-c5nnc(C(F)F)o5)cc4)c3)ccc21` [compound 321, 5-[1-[[4-[5-(difluoromethyl)-1,3,4-oxadiazol-2-yl]phenyl]methyl]pyrazol-4-yl]-1-methylbenzimidazol-2-amine]?
A: IC50 (recombinant human HDAC6): 98 nM; IC50 (recombinant human HDAC1): > 1e+06 nM

Q: Which IC50 (recombinant human HDAC6) does the source give for `CCNc1ccc2cc(-c3nnn(Cc4ccc(-c5nnc(C(F)F)o5)c(F)c4)n3)ccc2n1` [compound 410, 6-(2-(4-(5-(difluoromethyl)-1,3,4-oxadiazol-2-yl)-3-fluorobenzyl)-2H-tetrazol-5-yl)-N-ethylquinolin-2-amine] here?
A: 348 nM

Q: What about the IC50 (recombinant human HDAC1) of the same compound?
A: 1e+06 nM

Q: `Nc1nc2cc(-c3cn(Cc4ccc(-c5nnc(C(F)F)o5)cc4)nn3)ccc2s1` [compound 132, 5-(1-(4-(5-(difluoromethyl)-1,3,4-oxadiazol-2-yl)benzyl)-1H-1,2,3-triazol-4-yl)benzo[d]thiazol-2-amine] was tested. Which IC50 (recombinant human HDAC6) did it give?
A: 51 nM

Q: What about the IC50 (recombinant human HDAC1) of the same compound?
A: > 200000 nM
